Measured values published in US9884842B2, “Combretastatin analogs” (The Board of Trustees of the University of Arkansas, priority 2013, dated 2018).

Experiments:
HL-60(TB) = experiment: cells; conditions: Homo sapiens; for GI50: HL-60; for CC50: HL-60, read-out: LC50
SW-620 = experiment: NCI growth inhibition and cytotoxicity screen, Colon Cancer panel; conditions: Homo sapiens; for GI50: SW-620; for CC50: SW-620, read-out: LC50
SF-539 = experiment: NCI growth inhibition and cytotoxicity screen, CNS Cancer panel; conditions: Homo sapiens; for GI50: SF-539; for CC50: SF-539, read-out: LC50
A498 = experiment: NCI growth inhibition and cytotoxicity screen, Renal Cancer panel; conditions: Homo sapiens; for GI50: A498; for CC50: A498, read-out: LC50
NCI-H460 = experiment: NCI growth inhibition and cytotoxicity screen, Lung Cancer panel; conditions: Homo sapiens; for GI50: NCI-H460; for CC50: NCI-H460, read-out: LC50
SN12C = experiment: NCI growth inhibition and cytotoxicity screen, Renal Cancer panel; conditions: Homo sapiens; for CC50: read-out: LC50
OVCAR-8 = experiment: NCI growth inhibition and cytotoxicity screen, Ovarian Cancer panel; conditions: Homo sapiens; for GI50: OVCAR-8; for CC50: OVCAR-8, read-out: LC50
786-0 = experiment: NCI growth inhibition and cytotoxicity screen, Renal Cancer panel; conditions: Homo sapiens; for GI50: 786-0; for CC50: 786-0, read-out: LC50
CAKI-1 = experiment: as above; conditions: Homo sapiens; for GI50: CAKI-1; for CC50: CAKI-1, read-out: LC50
HOP-92 = experiment: NCI growth inhibition and cytotoxicity screen, Lung Cancer panel; conditions: Homo sapiens; for GI50: HOP-92; for CC50: HOP-92, read-out: LC50
TK-10 = experiment: NCI growth inhibition and cytotoxicity screen, Renal Cancer panel; conditions: Homo sapiens; for GI50: TK-10; for CC50: TK-10, read-out: LC50
HOP-62 = experiment: NCI growth inhibition and cytotoxicity screen, Lung Cancer panel; conditions: Homo sapiens; for GI50: HOP-62; for CC50: HOP-62, read-out: LC50
SK-MEL-2 = experiment: NCI growth inhibition and cytotoxicity screen, Melanoma panel; conditions: Homo sapiens; for GI50: SK-MEL-2; for CC50: SK-MEL-2, read-out: LC50
RPMI-8226 = experiment: NCI growth inhibition and cytotoxicity screen, Leukemia panel; conditions: Homo sapiens; for GI50: RPMI-8226; for CC50: RPMI-8226, read-out: LC50
SK-MEL-28 = experiment: NCI growth inhibition and cytotoxicity screen, Melanoma panel; conditions: Homo sapiens; for GI50: SK-MEL-28; for CC50: SK-MEL-28, read-out: LC50
A549/ATCC = experiment: NCI growth inhibition and cytotoxicity screen, Lung Cancer panel; conditions: Homo sapiens; for GI50: A549; for CC50: A549, read-out: LC50
OVCAR-5 = experiment: NCI growth inhibition and cytotoxicity screen, Ovarian Cancer panel; conditions: Homo sapiens; for GI50: OVCAR-5; for CC50: OVCAR-5, read-out: LC50
NCI-H226 = experiment: NCI growth inhibition and cytotoxicity screen, Lung Cancer panel; conditions: Homo sapiens; for GI50: NCI-H226; for CC50: NCI-H226, read-out: LC50
UACC-62 = experiment: NCI growth inhibition and cytotoxicity screen, Melanoma panel; conditions: Homo sapiens; for GI50: UACC-62; for CC50: UACC-62, read-out: LC50
UO-31 = experiment: NCI growth inhibition and cytotoxicity screen, Renal Cancer panel; conditions: Homo sapiens; for GI50: UO-31; for CC50: UO-31, read-out: LC50
K-562 = experiment: NCI growth inhibition and cytotoxicity screen, Leukemia panel; conditions: Homo sapiens; for GI50: K562; for CC50: K562, read-out: LC50
M14 = experiment: NCI growth inhibition and cytotoxicity screen, Melanoma panel; conditions: Homo sapiens; for GI50: M14; for CC50: M14, read-out: LC50
U251 = experiment: NCI growth inhibition and cytotoxicity screen, CNS Cancer panel; conditions: Homo sapiens; for GI50: U-251; for CC50: U-251, read-out: LC50
MALME-3M = experiment: NCI growth inhibition and cytotoxicity screen, Melanoma panel; conditions: Homo sapiens
SNB-75 = experiment: NCI growth inhibition and cytotoxicity screen, CNS Cancer panel; conditions: Homo sapiens; for GI50: SNB-75; for CC50: SNB-75, read-out: LC50
OVCAR-4 = experiment: NCI growth inhibition and cytotoxicity screen, Ovarian Cancer panel; conditions: Homo sapiens; for GI50: OVCAR-4; for CC50: OVCAR-4, read-out: LC50
HCT-15 = experiment: NCI growth inhibition and cytotoxicity screen, Colon Cancer panel; conditions: Homo sapiens; for GI50: HCT-15; for CC50: HCT-15, read-out: LC50
LOX-IMVI = experiment: NCI growth inhibition and cytotoxicity screen, Melanoma panel; conditions: Homo sapiens; for CC50: read-out: LC50
HT29 = experiment: NCI growth inhibition and cytotoxicity screen, Colon Cancer panel; conditions: Homo sapiens; for GI50: HT-29; for CC50: HT-29, read-out: LC50
MDA-MB-231/ATCC = experiment: NCI growth inhibition and cytotoxicity screen, Breast Cancer panel; conditions: Homo sapiens; for GI50: MDA-MB-231; for CC50: MDA-MB-231, read-out: LC50
SF-295 = experiment: NCI growth inhibition and cytotoxicity screen, CNS Cancer panel; type: cell-based; conditions: Homo sapiens, Table 2, cell line SF-295 (CNS Cancer)

COc1cc(/C(C#N)=C\c2cc3ccccc3s2)cc(OC)c1OC [Formula (I)(a)]
17.9 nM: GI50 (NCI-H226)
37.8 nM: GI50 (CAKI-1)
> 100 µM: CC50 (HL-60(TB)) | CC50 (SW-620) | CC50 (SF-539) | CC50 (A498) | CC50 (NCI-H460) | CC50 (SN12C) | CC50 (OVCAR-8) | CC50 (786-0) | CC50 (CAKI-1) | CC50 (HOP-92) | CC50 (TK-10) | CC50 (HOP-62) | CC50 (SK-MEL-2) | CC50 (RPMI-8226) | CC50 (SK-MEL-28) | CC50 (A549/ATCC) | CC50 (OVCAR-5) | CC50 (NCI-H226) | CC50 (UACC-62) | CC50 (UO-31) | CC50 (K-562) | CC50 (M14) | CC50 (U251) | CC50 (MALME-3M; read-out: LC50) | CC50 (SNB-75) | CC50 (OVCAR-4) | CC50 (HCT-15) | CC50 (LOX-IMVI) | CC50 (HT29) | CC50 (MDA-MB-231/ATCC)
< 0.01 µM: GI50 (TK-10)
< 10 nM: GI50 (HL-60(TB)) | GI50 (SW-620) | GI50 (SF-539) | GI50 (A498) | GI50 (NCI-H460) | GI50 (SN12C) | GI50 (OVCAR-8) | GI50 (786-0) | GI50 (HOP-92) | GI50 (HOP-62) | GI50 (SK-MEL-2) | GI50 (RPMI-8226) | GI50 (SK-MEL-28) | GI50 (A549/ATCC) | GI50 (OVCAR-5) | GI50 (UACC-62) | GI50 (UO-31) | GI50 (K-562) | GI50 (M14) | GI50 (U251) | GI50 (MALME-3M) | GI50 (SNB-75) | GI50 (OVCAR-4) | GI50 (HCT-15) | GI50 (LOX-IMVI) | GI50 (HT29) | GI50 (MDA-MB-231/ATCC)

COc1cc(/C(C#N)=C/c2ccc3ccccc3n2)cc(OC)c1OC [PNR-4-90, (Z)-3-(quinolin-2-yl)-2-(3,4,5-trimethoxyphenyl)acrylonitrile]
446 nM: GI50 (OVCAR-8)
518 nM: GI50 (SK-MEL-28)
483 nM: GI50 (SK-MEL-2)
319 nM: GI50 (HCT-15)
277 nM: GI50 (SF-295)
223 nM: GI50 (HL-60(TB))
736 nM: GI50 (HOP-92)
297 nM: GI50 (RPMI-8226)
173 nM: GI50 (M14)
355 nM: GI50 (U251)
> 100 µM: CC50 (HL-60(TB)) | CC50 (SW-620) | CC50 (A498) | CC50 (NCI-H460) | CC50 (SN12C) | CC50 (SF-295; read-out: LC50 (the source's name)) | CC50 (OVCAR-8) | CC50 (786-0) | CC50 (CAKI-1) | CC50 (HOP-92) | CC50 (TK-10) | CC50 (HOP-62) | CC50 (SK-MEL-2) | CC50 (RPMI-8226) | CC50 (SK-MEL-28) | CC50 (A549/ATCC) | CC50 (OVCAR-5) | CC50 (NCI-H226) | CC50 (UACC-62) | CC50 (UO-31) | CC50 (K-562) | CC50 (M14) | CC50 (OVCAR-4) | CC50 (HCT-15) | CC50 (LOX-IMVI) | CC50 (HT29) | CC50 (MDA-MB-231/ATCC)
68 nM: GI50 (CAKI-1)
164 nM: GI50 (SW-620)
766 nM: GI50 (LOX-IMVI)
762 nM: GI50 (UO-31)
580 nM: GI50 (OVCAR-5)
197 nM: GI50 (SF-539)
92 nM: GI50 (UACC-62)
240 nM: GI50 (HT29)
943 nM: GI50 (MDA-MB-231/ATCC)
1430 nM: GI50 (OVCAR-4)
295 nM: GI50 (A498)
98.8 µM: CC50 (SNB-75)
375 nM: GI50 (A549/ATCC)
445 nM: GI50 (786-0)
4.69 µM: GI50 (TK-10)
182 nM: GI50 (SNB-75)
90.5 µM: CC50 (U251)
80 nM: GI50 (K-562)
627 nM: GI50 (SN12C)
14.9 µM: CC50 (SF-539)
4780 nM: GI50 (NCI-H226)
567 nM: GI50 (HOP-62)
361 nM: GI50 (NCI-H460)
